From patent US11311462B2, “Adhesive monomers for dental materials” (Mitsui Chemicals, Inc., priority 2017, dated 2022)

Assay: Three-point bending test of cured product
Type: physicochemical
Description: The composition prepared as described above was packed in a 2×2×25 mm SUS mold, covered with a cover film, and then irradiated with light from a dental visible light irradiator (α Light V, manufactured by J. Morita Tokyo MFG. Corp.) for 3 minutes on each side, namely, for a total of 6 minutes on both sides to cure the composition. The cured product was stored in deionized water at 37° C. for 24 hours, and then subjected to a three-point bending test with a general-purpose tester (Precise Versatile Material Tester 210X, manufactured by INTESCO Co., Ltd.) under conditions in which the distance between supports was 20 mm and the cross head speed was 1.0 mm/min. The results of the bending test of the cured products of the compositions to be used as the dental materials are shown in Table 2.

[1] = Table 2, composition: compound 1.80 g, UDMA 2.5 g, TEGDMA 0.74 g, plus 0.5 parts by weight TPO, cured product stored in deionized water at 37° C. 24 hours
[2] = Table 3, composition: compound 60, UDMA 30, TEGDMA 10 parts by weight, plus 0.5 parts TPO
[3] = Table 5, filled pasty composition in parts by weight: compound 8.0, UDMA 20, TEGDMA 10, 4-META 2.0, CQ 0.2, 2-butoxyethyl 4-(dimethylamino)benzoate 0.4, glass filler 59

SMILES	Cured product bending test result Elastic modulus [1]	Cured product bending test result Maximum stress [1]	Cured product bending test result Elastic modulus [2]	Cured product bending test result Maximum stress [2]	Cured product bending test result Elastic modulus [3]
C=C(C)C(=O)OCCNC(=O)OCC(COCC(COC(=O)NCCOC(=O)C(=C)C)OP(=O)(O)O)OC(=O)NCCOC(=O)C(=C)C (stereo not drawn) [Compound 4]	2.4 GPa	102 MPa	2.3 GPa	88 MPa	
C=C(C)C(=O)OCCOCCNC(=O)OCC(COC(=O)NCCOCCOC(=O)C(=C)C)OP(=O)(O)O [Compound 6]	2.0 GPa	89 MPa	1.3 GPa	66 MPa	
C=C(C)C(=O)OCCCCCCCCCCOP(=O)(O)O [MDP, 10-methacryloyloxydecyl dihydrogen phosphate, reference compound]	1.7 GPa	85 MPa	0.32 GPa	22 MPa	5.7 GPa
C=C(C)C(=O)OCCNC(=O)OCC(COC(=O)NCCOC(=O)C(=C)C)OP(=O)(O)O [Compound 2]	2.3 GPa	102 MPa	2.2 GPa	92 MPa	6.5 GPa
